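Assay format: 96-well plates, 48-hour exposure. Definition used: TGI = concentration required for complete inhibition of growth.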
Key:
Assay in all cases: inhibition of tumour cell growth, NCI panel, 48 h
[1] = test system: OVCAR-3 ovarian
[2] = test system: SK-MEL-5 melanoma
[3] = test system: HOP-92 NSCLC
[4] = test system: IGROV1 ovarian
[5] = test system: CCRF-CEM leukemia
[6] = test system: PC-3 prostate
[7] = test system: MDA-MB-231 breast
[8] = test system: K-562 leukemia
[9] = test system: SK-MEL-28 melanoma
[10] = test system: HCC-2998 colon
[11] = test system: DU-145 prostate
[12] = test system: MALME-3M melanoma
[13] = test system: SF-268 CNS
[14] = test system: SW-620 colon
[15] = test system: SNB-75 CNS
[16] = test system: SK-MEL-2 melanoma
[17] = test system: NCI-H226 lung
[18] = test system: CAKI-1 renal
[19] = test system: T-47D breast
[20] = test system: UO-31 renal

Compound | TGI [1] | TGI [2] | TGI [3] | TGI [4] | TGI [5] | TGI [6] | TGI [7] | TGI [8] | TGI [9] | TGI [10] | TGI [11] | TGI [12] | TGI [13] | TGI [14] | TGI [15] | TGI [16] | TGI [17] | TGI [18] | TGI [19] | TGI [20]
O=C(O)c1cc2c(cc1CC(Cc1ccc3c(c1)CCCC3)C(=O)O)CCCC2 (stereo not given) | > 100 µM | > 100 µM | > 100 µM | > 100 µM | > 100 µM | > 100 µM | > 100 µM | > 100 µM | > 100 µM | > 100 µM | > 100 µM | > 100 µM | > 100 µM | > 100 µM | > 100 µM | > 100 µM | > 100 µM | > 100 µM | > 100 µM | > 100 µM
Clc1ccc(C(Cc2cccc(Cl)c2)c2c(Cl)nc(N3CCNCC3)nc2Cl)cc1 (stereo not given) | 29.2 µM | 29.7 µM | 27.1 µM | > 100 µM | 31.9 µM | 30.6 µM | 26.4 µM | 26.5 µM | 33.6 µM | 28.4 µM | 33.9 µM | 26.4 µM | – | 30.1 µM | 26.7 µM | 40.9 µM | > 100 µM | 24.4 µM | 31 µM | 25.8 µM
O[C@H]1[C@H](O)[C@@H](O)[C@@]2(O)CC[C@@H]1N2 | > 100 µM | > 100 µM | > 100 µM | > 100 µM | > 100 µM | > 100 µM | > 100 µM | > 100 µM | > 100 µM | > 100 µM | > 100 µM | > 100 µM | > 100 µM | > 100 µM | > 100 µM | > 100 µM | > 100 µM | > 100 µM | > 100 µM | > 100 µM
Cn1ncc2c(Nc3cccc(Cl)c3)nc(Nc3cccc(Cl)c3)nc21 | > 66.6 µM | > 51.6 µM | 44.7 µM | > 66.6 µM | 2.89 µM | 36 µM | > 68.3 µM | 19.2 µM | 41.2 µM | 27.6 µM | 40 µM | 48 µM | 55.8 µM | > 58.2 µM | 31.1 µM | 41.7 µM | > 72.3 µM | 30.8 µM | 37 µM | 35.4 µM
C=C1CCCC(C)(C)C1CCC1(C)CCC(C(C)C(=O)OC)OO1 (stereo not given) | > 25 µM | > 25 µM | 2.44 µM | 1.7 µM | > 18 µM | 7.56 µM | > 25 µM | > 25 µM | > 25 µM | 11.5 µM | 8.63 µM | > 25 µM | 7.77 µM | 24.2 µM | 7.56 µM | > 25 µM | > 25 µM | 0.749 µM | 11.7 µM | 1.91 µM
CC(=NNC(=S)Nc1cccc(C)c1)c1cccc(C(C)=NNC(=S)Nc2cccc(C)c2)n1 | 26.8 µM | 30.8 µM | 63.2 µM | 46.7 µM | > 100 µM | > 100 µM | 59.9 µM | > 100 µM | > 100 µM | > 100 µM | > 100 µM | 49.2 µM | > 100 µM | 70.5 µM | 69.2 µM | 74 µM | 95.1 µM | 71.1 µM | > 100 µM | 86.3 µM
N#Cc1cc([N+](=O)[O-])ccc1NC(=O)/C(=N\NC(=O)c1ccncc1)C(c1cnc2ccc([N+](=O)[O-])cc2n1)[N+](=O)[O-] (stereo not given) | 4.29 µM | 2.14 µM | 22.6 µM | 14.2 µM | 25.6 µM | 21.4 µM | 5.36 µM | 6.4 µM | 4.81 µM | 22.2 µM | 11.8 µM | 2.61 µM | 11.6 µM | 5.5 µM | 3.83 µM | 3.73 µM | 7.58 µM | 17.9 µM | 18.4 µM | 7.6 µM
Cc1c2c(OCC(O)CN3CCN(c4ccccc4)CC3)nn(C)c(=O)c2c(C)n1-c1ccccc1 (stereo not given) | 45.5 µM | 30.3 µM | > 100 µM | > 100 µM | > 100 µM | 55.9 µM | 69.6 µM | 69.2 µM | 40.2 µM | 78.3 µM | > 100 µM | 40.7 µM | 73.5 µM | 98.8 µM | 75.5 µM | 33.1 µM | 54.5 µM | > 100 µM | 71.8 µM | 43.2 µM
Cn1c(=O)c2c(nc3sc4c(n32)C(=O)c2c(O)ccc(O)c2C4=O)n(C)c1=O | > 20.9 µM | 8.35 µM | 7.93 µM | 25.4 µM | 1.9 µM | 26.7 µM | 5.26 µM | 2.44 µM | 21.3 µM | 17.5 µM | 26.7 µM | 3.09 µM | 24.5 µM | 1.78 µM | 16.1 µM | 17.5 µM | > 100 µM | 18.6 µM | 7.6 µM | 11.6 µM
COC(=O)C1=C(OC(=O)/C(=C/c2ccccc2)c2ccc(Cl)cc2)C(C(=O)OC)[C@@]2(O)[C@@H](C(=O)OC)[C@H](C)C[C@@H]1[C@@H]2C(=O)OC (stereo not given in full) | > 100 µM | > 100 µM | > 100 µM | > 100 µM | > 100 µM | > 100 µM | > 100 µM | > 100 µM | > 100 µM | > 100 µM | > 100 µM | > 100 µM | > 100 µM | > 100 µM | > 100 µM | > 100 µM | > 100 µM | > 100 µM | > 100 µM | > 100 µM
COc1ccc2[nH]cc(C(=O)C(=O)NC34CC5CC(CC(C5)C3)C4)c2c1 | > 49.5 µM | > 100 µM | > 100 µM | > 100 µM | 29.9 µM | > 100 µM | 97.9 µM | 37.6 µM | > 100 µM | > 100 µM | > 100 µM | > 100 µM | > 100 µM | > 100 µM | > 73 µM | > 100 µM | > 71.1 µM | > 100 µM | > 100 µM | > 100 µM
OC[P+](CO)(CO)C12CC3CC(CC(C3)C1)C2 | > 100 µM | > 100 µM | > 100 µM | > 100 µM | 62.2 µM | > 100 µM | > 100 µM | > 100 µM | > 100 µM | > 100 µM | > 100 µM | > 100 µM | > 100 µM | > 100 µM | > 100 µM | > 100 µM | > 100 µM | > 100 µM | > 100 µM | > 100 µM
Cc1ccc([N+](=O)[O-])cc1S(=O)(=O)Nc1ccc(C2=NOC(c3cccs3)C2)cc1 (stereo not given) | 19.7 µM | 22.5 µM | 57 µM | 30 µM | 50.2 µM | > 100 µM | > 100 µM | 43.6 µM | > 100 µM | 21.9 µM | 52.7 µM | > 100 µM | 99.2 µM | 48.4 µM | 61.8 µM | 28.3 µM | > 100 µM | 70.4 µM | 50.5 µM | 21.9 µM
C=CCN1C[C@H](C)N([C@@H](c2ccc(C(=O)N3CCCCC3)cc2)c2cccc(OC)c2)C[C@H]1C | > 100 µM | 33.6 µM | > 100 µM | > 100 µM | 70.4 µM | 72.2 µM | > 100 µM | 60.8 µM | – | 99.5 µM | > 100 µM | 40.7 µM | > 100 µM | – | > 100 µM | 60.3 µM | > 100 µM | > 100 µM | 76 µM | > 100 µM
COC(=O)[C@H](Cc1c[nH]c2ccccc12)NP(=O)(O)OC[C@H]1O[C@@H](n2cc(C)c(=O)[nH]c2=O)C[C@@H]1N=[N+]=[N-] | > 100 µM | > 100 µM | > 100 µM | > 100 µM | > 100 µM | > 100 µM | > 100 µM | > 100 µM | – | > 100 µM | > 100 µM | > 100 µM | > 100 µM | > 100 µM | > 100 µM | > 100 µM | > 100 µM | > 100 µM | > 100 µM | > 100 µM
NC(=O)c1cccc(N=c2oc3ccc(Br)cc3cc2-c2nc3ccccc3[nH]2)c1 | 32.1 µM | 11.3 µM | 36.4 µM | 33.6 µM | 17.3 µM | 29.2 µM | 25 µM | 96.1 µM | > 100 µM | 34.9 µM | 28.9 µM | 43 µM | 43.6 µM | 47.7 µM | 23.6 µM | 38.5 µM | 24.2 µM | 34.3 µM | 29.2 µM | 20.8 µM
O=C(SC1=NCCN1)c1cccc2ccccc12 | > 100 µM | > 100 µM | > 100 µM | > 100 µM | 70.1 µM | > 100 µM | > 100 µM | 73.5 µM | > 100 µM | > 100 µM | > 100 µM | > 100 µM | > 100 µM | > 100 µM | 96.8 µM | > 100 µM | > 100 µM | > 100 µM | > 100 µM | > 100 µM
O=C(/C=C/c1ccc(C(F)(F)F)cc1)c1c([O-])on[n+]1-c1ccccc1 | 3.37 µM | 12.7 µM | 3.06 µM | 4.02 µM | 0.188 µM | 9.2 µM | 20 µM | > 100 µM | 2.89 µM | 4.18 µM | 7.17 µM | > 100 µM | > 26.2 µM | – | 5.87 µM | 9.64 µM | > 29.9 µM | 0.879 µM | 3.82 µM | 4 µM
